In patent US8796280B2, “2,3-disubstituted pyrazinesulfonamides as CRTH2 inhibitors” (Merck Serono, S.A., priority 2005, dated 2014):

Tests used:
[1] = target: T1, CRTH2 (Homo sapiens (Human), UniProt Q9Y5Y4); assay: Radioligand binding assay ([3H]PGD2 displacement, hCRTH2 HEK293 (EBNA) cell membranes); conditions: 1.5 nM [3H]PGD2, 10 μg hCRTH2 HEK293 (EBNA) membrane protein, 60 min room temperature; test concentration not given
From the text: Human CRTH2 cDNA was amplified by PCR using a human urinary bladder cDNA library as a template and specific primers containing HindIII and BamHI restriction sites for cloning into the pCEP4 vector (Invitrogen). The vector construction is described in detail in Sawyer et al., Br. J. Pharmocol 2002, 137, 1163-72. The nucleotide sequence of the cloned cDNA was identical the previously reported hCRTH2 sequence (Nagata et al, 1999, J. Immunol. 162, 1278-1286).
HEK293 (EBNA) cells were transfected with the pCEP4-hCRTH2 construct using the calcium phosphate technique. Cells were maintained in culture at 37° C. in an atmosphere of 5% CO2 in Dulbecco's modified Eagle's F12 medium (Invitrogen), containing 10% heat-inactivated foetal calf serum (TerraCell International, Canada), 2 mM Glutamine, 100 units/ml of penicillin and 100 μg/ml streptomycin (Invitrogen). 48 hours after the transfection, cells were grown in presence of 300 μg/ml of Hygromycin B (Invitrogen) for 4 weeks and antibiotic resistant cells were amplified for cell membrane preparation.
Adherent HEK293 (EBNA) cells expressing hCRTH2 were cultured in 225 cm^2 cell culture flasks (Corning, USA) in 30 ml of medium. After two rinses of phosphate buffered saline (PBS), cells were harvested in 10 ml of PBS containing 1 mM EDTA, centrifuged at 500×g for 5 min at 4° C. and frozen at −80° C. The pellet was re-suspended in 50 mM Tris-HCl, pH 7.4, 2 mM EDTA, 250 mM Sucrose, containing protease inhibitor cocktail tablets, (Complete EDTA-free, Roche, Germany) and incubated 30 min at 4° C. Cells were disrupted by nitrogen cavitation (Parr Instruments, USA) at 4° C. (800 p.s.i. for 30 min), and centrifuged at 500×g for 10 min at 4° C. Pellet containing nuclei and cellular debris was discarded and supernatant was centrifuged 60 min at 4° C. at 45000×g. Membrane pellet was re-suspended in storage buffer (10 mM HEPES/KOH pH 7.4, 1 mM EDTA, 250 mM sucrose, protease inhibitor cocktail tablets) using Dounce homogenization and frozen in liquid nitrogen, and stored at −80° C.
(§1) The inhibitory activity can be investigated by a radioligand binding assay (Sawyer et al., Br. J. Pharmocol 2002, 137, 1163-72). The radioligand binding assay was performed at room temperature in binding buffer (10 mM HEPES/KOH pH […], with protease inhibitor cocktail tablets), containing 1.5 nM [^3H]PGD2 (Amersham, 156 Cie/mmol), and 10 μg of hCRTH2 HEK293 (EBNA) cell membrane protein in a final volume of 100 μl in 96 well plates (Corning, USA). Non-specific binding was determined in the presence of 1 μM PGD2 (Cayman, USA). Competing pyrazine sulfonamides were diluted in dimethylsulphoxide so that the total volume of dimethylsulfoxide was kept constant at 1% dimethylsulphoxide (Me2SO). 10 μl of the pyrazine sulfonamides were added. Incubation (60 min at room temperature) was terminated by rapid filtration through 96 wells hydrophobic GF/C Unifilter plates (Whatman, USA). Filters were washed twice with 250 μl of Tris-HCl pH 7.4, 10 mM MnCl2, and residual radioligand bound to the filters was mixed to 100 μl of liquid scintillation cocktail (Optiphase Supermix, Perkin Elmer, USA) and binding activity was determined by counting residual radioligand using a 1450 Micro-beta scintillation counter (Wallac, UK).

[2] = target: T1, CRTH2; assay: Determination of Ki, equilibrium competition binding against [3H]PGD2; conditions: competition against [3H]PGD2; average of at least three independent dose response experiments; Ki calculated from IC50
Experimental: as §1
Ki values were determined by equilibrium competition binding experiments against [^3H]PGD2. Ki values were calculated from the formula below and represent the average of at least three independent dose response experiments. The Ki values give the ligand concentrations necessary to inhibit 50% of the binding of 3[H]PGD2 to CRTH2. Ki=IC50/(1+[Concentration of Ligand]/Kd)]
All experiments were performed in 96 well plates, in a final volume of 100 μl according to the above described filtration assay. The concentration of membranes and 3[H]PGD2, as well as the positive and negative controls were identical to the conditions described above.

[3] = target: T1, CRTH2; assay: [35S]GTPγS binding assay; type: biochemical; conditions: inhibition of [35S]GTPγS binding, membranes expressing hCRTH2, 80 nM PGD2 (antagonist activity)
Experimental: The [^35S]GTPγS assay measures the increase in guanine nucleotide exchange at G-proteins in cell membranes, resulting from agonist (PGD2) binding to CRTH2. This process can be monitored in vitro by incubating cell membranes containing G-proteins and CRTH2 with GDP and [^35S]GTPγS, a radiolabeled, hydrolysis-resistant analogue of GTP (see, Harrison et al., Life Sciences 74, 489-508, 2003). The addition of a pyrazine sulfonamide results in binding to CRTH2 and thus in an inhibition of agonist binding, which can be monitored as inhibition of the stimulation of GTP/GDP exchange.
Assay conditions were identical to conditions of radioligand binding assay as described in Example 21. The [^35S]GTPγS binding assay was performed at 30° C. with gentle agitation in 96-well scintillating white polystyrene plates (Perkin Elmer, USA), in a final volume of 200 μl, containing 2% of dimethylsulphoxide (Me2SO). The 2,3 substituted pyrazine sulfonamides were incubated in 20 mM HEPES/KOH pH 7.4, 1 mM MgCl2, 10 μg/ml Saponin, 3 μM GDP, 150 mM NaCl containing 10 μg of membranes expressing the hCRTH2 receptor (Euroscreen, Belgium) for 10 min. Non-specific binding was determined in the presence of 10 μM of GTPγS. Samples were incubated for 30 min in the presence of increasing concentrations of PGD2 for the determination of agonist activity, or with 80 nM of PGD2 for determination of antagonist activity, respectively. 0.15 nM of [^35S]GTPγS were subsequently added to each sample and after incubation of 30 min reactions were stopped by centrifugation at 1000×g, at 4° C. for 10 min. Supernatant was removed and [^35S]GTPγS binding was determined using a 1450 Micro-beta scintillation counter. Data were analysed using “Prism” (GraphPad Software, Inc. San Diego, USA). The determination of the IC50 values (i.e. the amount necessary to achieve 50% inhibition of binding (in μM)) were performed in 96 well plates, in a final volume of 100 μl according to the above described filtration assay. […]

T1 sequence (Q9Y5Y4 whole entry): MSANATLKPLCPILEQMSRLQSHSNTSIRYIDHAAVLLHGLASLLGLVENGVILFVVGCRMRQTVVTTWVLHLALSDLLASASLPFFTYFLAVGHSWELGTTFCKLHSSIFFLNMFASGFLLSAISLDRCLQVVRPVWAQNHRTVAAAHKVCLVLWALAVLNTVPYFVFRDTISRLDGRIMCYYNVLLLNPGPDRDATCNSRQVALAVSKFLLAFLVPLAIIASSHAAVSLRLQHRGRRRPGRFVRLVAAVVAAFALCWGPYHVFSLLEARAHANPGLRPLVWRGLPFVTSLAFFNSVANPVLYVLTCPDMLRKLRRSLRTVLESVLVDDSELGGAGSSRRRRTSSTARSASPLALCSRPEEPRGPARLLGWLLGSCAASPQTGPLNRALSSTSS

Row | Structure (SMILES) | Inhibition hCRTH2 [%] [1] [%] | Ki [2] [µM] | IC50 [3] [µM]
1 | CCc1nc2ccccc2n1Cc1ccc(-c2nccnc2NS(=O)(=O)c2ccccc2C(F)(F)F)cc1 [Compound 3, N-(3-{4-[(2-ethyl-1H-benzimidazol-1-yl)methyl]phenyl}pyrazin-2-yl)-2-(trifluoromethyl)benzenesulfonamide] | 86.5 | 0.45 | 1.4
2 | CN(Cc1ccc(-c2nccnc2NS(=O)(=O)c2ccccc2Cl)cc1)c1ccc(OC(F)(F)F)cc1 [Compound 2, 2-chloro-N-{3-[4-({methyl[4-(trifluoromethoxy)phenyl]amino}-methyl)-phenyl]pyrazin-2-yl}benzene sulfonamide] | 91.5 | 1.26 | 4.6
3 | O=S(=O)(Nc1nccnc1-c1ccc(Cn2ccc3ccccc32)cc1)c1ccccc1C(F)(F)F [Compound 1, N-{3-[4-(1H-indol-1-ylmethyl)phenyl]pyrazin-2-yl}-2-(trifluoromethyl)benzene-sulfonamide] | 94.5 | 1.01 | 1.9
